Data from the supplement of paper PMC11451515.

Columns and labels:
Details in all cases: 48 h
NOMO1 [1] = experiment: AUC of viability dose-response curve (% viability x log10 dose units); higher = less sensitive
Summary of the method: (§1)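 Area under the curve was integrated by trapezoidal rule from a log-logistic fit of normalised viability, with curves exceeding full viability scaled and quality-control failures removed. The fit had four parameters over log10 doses. Viability came from CellTiter-Glo One luminescence, normalised per plate to DMSO and cell-free wells, after leukemia cells adapted to each medium (500 or 1000 cells/well, 1536-well plates) were exposed to library compounds in DMSO for 48 h at 37°C. The 11 threefold doses ran from 47 μM to 0.79 nM.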

SEM cells [2] = experiment: as above
Summary of the method: as §1

P12-Ichikawa [3] = experiment: as above
Summary of the method: as §1

NOMO1 [4] = experiment: cell viability relative to DMSO control; higher = less cytotoxic
Summary of the method: (§2)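 NOMO1 or SEM (500 cells/well) or P12-Ichikawa (1000 cells/well) leukemia cells were adapted for at least four passages in each medium. They were seeded in 1536-well plates (5 μl) and pin-dosed with library compounds in DMSO over an 11-point threefold series, 47 μM to 0.79 nM. CellTiter-Glo One luminescence was read after 48 h at 37°C. Viability is the per-plate percentage relative to DMSO wells, with cell-free wells as background.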

SEM cells [5] = experiment: as above
Summary of the method: as §2

P12-Ichikawa [6] = experiment: as above
Summary of the method: as §2

Cc1cc(Nc2cc(CN3CCOCC3)c3nc(C)c(Cc4ccc(Cl)cc4F)n3n2)[nH]n1
AUC of viability dose-response curve
Details | NOMO1 [1] | P12-Ichikawa [3] | SEM cells [2]
HPLM + 10% dialyzed FBS | 429 | 436 | 342
RPMI 5 mM glucose + 10% FBS | 424 | 428 | 317
RPMI 5 mM glucose + 10% dialyzed FBS | 422 | 439 | 310

cell viability [%]
Details | NOMO1 [4] | P12-Ichikawa [6] | SEM cells [5]
HPLM + 10% dialyzed FBS, 0.000781 µM | 114 | 112 | 119
HPLM + 10% dialyzed FBS, 0.00234 µM | 121 | 105 | 116
HPLM + 10% dialyzed FBS, 0.00702 µM | 130 | 119 | 113
HPLM + 10% dialyzed FBS, 0.0211 µM | 114 | 116 | 108
HPLM + 10% dialyzed FBS, 0.0632 µM | 137 | 109 | 116
HPLM + 10% dialyzed FBS, 0.19 µM | 115 | 111 | 105
HPLM + 10% dialyzed FBS, 0.569 µM | 101 | 114 | 74.6
HPLM + 10% dialyzed FBS, 1.71 µM | 110 | 104 | 60.5
HPLM + 10% dialyzed FBS, 5.12 µM | 99.7 | 96.5 | 51.4
HPLM + 10% dialyzed FBS, 15.4 µM | 53.5 | 34.8 | 22.9
HPLM + 10% dialyzed FBS, 46.1 µM | 48.3 | 78.4 | 21.4
RPMI 5 mM glucose + 10% FBS, 0.000781 µM | 103 | 120 | 113
RPMI 5 mM glucose + 10% FBS, 0.00234 µM | 98.2 | 114 | 107
RPMI 5 mM glucose + 10% FBS, 0.00702 µM | 103 | 117 | 114
RPMI 5 mM glucose + 10% FBS, 0.0211 µM | 111 | 117 | 109
RPMI 5 mM glucose + 10% FBS, 0.0632 µM | 95.4 | 110 | 108
RPMI 5 mM glucose + 10% FBS, 0.19 µM | 114 | 116 | 83.2
RPMI 5 mM glucose + 10% FBS, 0.569 µM | 94 | 96.2 | 61.6
RPMI 5 mM glucose + 10% FBS, 1.71 µM | 94.7 | 109 | 58.8
RPMI 5 mM glucose + 10% FBS, 5.12 µM | 91.7 | 86.6 | 49.4
RPMI 5 mM glucose + 10% FBS, 15.4 µM | 36.7 | 48.1 | 14.8
RPMI 5 mM glucose + 10% FBS, 46.1 µM | 28.2 | 56.5 | 6.83
RPMI 5 mM glucose + 10% dialyzed FBS, 0.000781 µM | 102 | 106 | 109
RPMI 5 mM glucose + 10% dialyzed FBS, 0.00234 µM | 111 | 101 | 129
RPMI 5 mM glucose + 10% dialyzed FBS, 0.00702 µM | 119 | 115 | 122
RPMI 5 mM glucose + 10% dialyzed FBS, 0.0211 µM | 115 | 114 | 92.4
RPMI 5 mM glucose + 10% dialyzed FBS, 0.0632 µM | 115 | 104 | 106
RPMI 5 mM glucose + 10% dialyzed FBS, 0.19 µM | 106 | 111 | 95.2
RPMI 5 mM glucose + 10% dialyzed FBS, 0.569 µM | 109 | 99.7 | 66.1
RPMI 5 mM glucose + 10% dialyzed FBS, 1.71 µM | 97.3 | 104 | 52.7
RPMI 5 mM glucose + 10% dialyzed FBS, 5.12 µM | 92 | 95.8 | 40.9
RPMI 5 mM glucose + 10% dialyzed FBS, 15.4 µM | 45 | 51.5 | 11.6
RPMI 5 mM glucose + 10% dialyzed FBS, 46.1 µM | 34.3 | 62.7 | 9.11

CC(C)c1ccc(Cn2ccc3c4c(N)nc(NC5CC5)nc4ccc32)cc1
AUC of viability dose-response curve
Details | NOMO1 [1] | P12-Ichikawa [3] | SEM cells [2]
HPLM + 10% dialyzed FBS | 339 | 343 | 343
RPMI 5 mM glucose + 10% FBS | 409 | 392 | 383
RPMI 5 mM glucose + 10% dialyzed FBS | 384 | 368 | 390

cell viability [%]
Details | NOMO1 [4] | P12-Ichikawa [6] | SEM cells [5]
HPLM + 10% dialyzed FBS, 0.000781 µM | 116 | 110 | 99.5
HPLM + 10% dialyzed FBS, 0.00234 µM | 114 | 116 | 100
HPLM + 10% dialyzed FBS, 0.00702 µM | 116 | 119 | 113
HPLM + 10% dialyzed FBS, 0.0211 µM | 101 | 84 | 100
HPLM + 10% dialyzed FBS, 0.0632 µM | 126 | 116 | 113
HPLM + 10% dialyzed FBS, 0.19 µM | 123 | 100 | 107
HPLM + 10% dialyzed FBS, 0.569 µM | 70.2 | 83.4 | 67.6
HPLM + 10% dialyzed FBS, 1.71 µM | 53.1 | 65.6 | 53.2
HPLM + 10% dialyzed FBS, 5.12 µM | 38.8 | 32.7 | 37.5
HPLM + 10% dialyzed FBS, 15.4 µM | 39.3 | 26.7 | 31.9
HPLM + 10% dialyzed FBS, 46.1 µM | 4.39 | 2.54 | 6.32
RPMI 5 mM glucose + 10% FBS, 0.000781 µM | 121 | 118 | 107
RPMI 5 mM glucose + 10% FBS, 0.00234 µM | 116 | 123 | 114
RPMI 5 mM glucose + 10% FBS, 0.00702 µM | 125 | 127 | 120
RPMI 5 mM glucose + 10% FBS, 0.0211 µM | 120 | 84.8 | 80.5
RPMI 5 mM glucose + 10% FBS, 0.0632 µM | 120 | 126 | 106
RPMI 5 mM glucose + 10% FBS, 0.19 µM | 130 | 133 | 120
RPMI 5 mM glucose + 10% FBS, 0.569 µM | 123 | 133 | 102
RPMI 5 mM glucose + 10% FBS, 1.71 µM | 113 | 114 | 110
RPMI 5 mM glucose + 10% FBS, 5.12 µM | 100 | 52.2 | 35.5
RPMI 5 mM glucose + 10% FBS, 15.4 µM | 30.9 | 51.5 | 19.5
RPMI 5 mM glucose + 10% FBS, 46.1 µM | 4.9 | 2.24 | 8.49
RPMI 5 mM glucose + 10% dialyzed FBS, 0.000781 µM | 110 | 118 | 97.7
RPMI 5 mM glucose + 10% dialyzed FBS, 0.00234 µM | 109 | 124 | 113
RPMI 5 mM glucose + 10% dialyzed FBS, 0.00702 µM | 104 | 122 | 123
RPMI 5 mM glucose + 10% dialyzed FBS, 0.0211 µM | 107 | 86.4 | 80.5
RPMI 5 mM glucose + 10% dialyzed FBS, 0.0632 µM | 133 | 139 | 125
RPMI 5 mM glucose + 10% dialyzed FBS, 0.19 µM | 124 | 126 | 124
RPMI 5 mM glucose + 10% dialyzed FBS, 0.569 µM | 128 | 132 | 134
RPMI 5 mM glucose + 10% dialyzed FBS, 1.71 µM | 84.7 | 85.5 | 119
RPMI 5 mM glucose + 10% dialyzed FBS, 5.12 µM | 50.3 | 36.5 | 46.7
RPMI 5 mM glucose + 10% dialyzed FBS, 15.4 µM | 49.8 | 32.1 | 33.3
RPMI 5 mM glucose + 10% dialyzed FBS, 46.1 µM | 3.66 | 2.44 | 9.93

NC(=O)c1cccc2cn(-c3ccc([C@@H]4CCCNC4)cc3)nc12
AUC of viability dose-response curve
Details | NOMO1 [1] | P12-Ichikawa [3] | SEM cells [2]
HPLM + 10% dialyzed FBS | 468 | 453 | 438
RPMI 5 mM glucose + 10% FBS | 456 | 441 | 448
RPMI 5 mM glucose + 10% dialyzed FBS | 470 | 458 | 446

cell viability [%]
Details | NOMO1 [4] | P12-Ichikawa [6] | SEM cells [5]
HPLM + 10% dialyzed FBS, 0.000781 µM | 90.2 | 90.3 | 86.9
HPLM + 10% dialyzed FBS, 0.00234 µM | 97.4 | 94.4 | 90.8
HPLM + 10% dialyzed FBS, 0.00702 µM | 114 | 103 | 105
HPLM + 10% dialyzed FBS, 0.0211 µM | 103 | 104 | 126
HPLM + 10% dialyzed FBS, 0.0632 µM | 118 | 110 | 129
HPLM + 10% dialyzed FBS, 0.19 µM | 122 | 105 | 98.9
HPLM + 10% dialyzed FBS, 0.569 µM | 114 | 108 | 112
HPLM + 10% dialyzed FBS, 1.71 µM | 111 | 106 | 116
HPLM + 10% dialyzed FBS, 5.12 µM | 98.2 | 101 | 91.8
HPLM + 10% dialyzed FBS, 15.4 µM | 117 | 86.9 | 63.8
HPLM + 10% dialyzed FBS, 46.1 µM | 69 | 33.8 | 50
RPMI 5 mM glucose + 10% FBS, 0.000781 µM | 83.5 | 83.9 | 97.8
RPMI 5 mM glucose + 10% FBS, 0.00234 µM | 82.2 | 90.4 | 111
RPMI 5 mM glucose + 10% FBS, 0.00702 µM | 100 | 96.8 | 113
RPMI 5 mM glucose + 10% FBS, 0.0211 µM | 102 | 100 | 110
RPMI 5 mM glucose + 10% FBS, 0.0632 µM | 93.8 | 103 | 102
RPMI 5 mM glucose + 10% FBS, 0.19 µM | 97.1 | 105 | 92.8
RPMI 5 mM glucose + 10% FBS, 0.569 µM | 91.5 | 101 | 119
RPMI 5 mM glucose + 10% FBS, 1.71 µM | 106 | 102 | 113
RPMI 5 mM glucose + 10% FBS, 5.12 µM | 103 | 103 | 120
RPMI 5 mM glucose + 10% FBS, 15.4 µM | 105 | 75.5 | 80.1
RPMI 5 mM glucose + 10% FBS, 46.1 µM | 82.2 | 24.5 | 32.5
RPMI 5 mM glucose + 10% dialyzed FBS, 0.000781 µM | 83.8 | 94.1 | 94.3
RPMI 5 mM glucose + 10% dialyzed FBS, 0.00234 µM | 111 | 98.6 | 80.8
RPMI 5 mM glucose + 10% dialyzed FBS, 0.00702 µM | 108 | 103 | 93.4
RPMI 5 mM glucose + 10% dialyzed FBS, 0.0211 µM | 111 | 105 | 106
RPMI 5 mM glucose + 10% dialyzed FBS, 0.0632 µM | 108 | 108 | 104
RPMI 5 mM glucose + 10% dialyzed FBS, 0.19 µM | 122 | 113 | 90
RPMI 5 mM glucose + 10% dialyzed FBS, 0.569 µM | 114 | 103 | 109
RPMI 5 mM glucose + 10% dialyzed FBS, 1.71 µM | 102 | 106 | 124
RPMI 5 mM glucose + 10% dialyzed FBS, 5.12 µM | 110 | 101 | 94.6
RPMI 5 mM glucose + 10% dialyzed FBS, 15.4 µM | 118 | 88.4 | 66.4
RPMI 5 mM glucose + 10% dialyzed FBS, 46.1 µM | 98.8 | 55.5 | 44.4
